Results as given in ChEMBL document CHEMBL1122308, “Bicyclic lactones derived from kainic acid as novel selective antagonists of neuroexcitatory amino acids” (J Med Chem, 1983).

How the values were obtained:
Format in all cases: functional
Rattus norvegicus [1] = species: Rattus norvegicus; experiment: Percentage response to 0.1 mM of kainic acid (KA) at 2 mM in rat striatum slices.
Rattus norvegicus [2] = species: Rattus norvegicus; experiment: Percentage response to 30 uM of N-methyl-D-aspartic acid (NMDA) at 2 mM in rat striatum slices.
Rattus norvegicus [3] = species: Rattus norvegicus; experiment: Concentration at which the compound inhibits half of the response of N-methyl-D-aspartic acid (NMDA)
Rattus norvegicus [4] = species: Rattus norvegicus; experiment: Percentage response to 0.1 mM of quisqualic acid at 2 mM in rat striatum slices.
Rattus norvegicus [5] = species: Rattus norvegicus; experiment: Concentration at which the compound inhibits half of the response of kainic acid (KA)
Rattus norvegicus [6] = species: Rattus norvegicus; experiment: Percentage response to 0.5 mM of L-Glutamic acid at 2 mM in rat striatum slices.
Rattus norvegicus [7] = species: Rattus norvegicus; experiment: Percentage response to 0.5 mM of L-Glutamic acid at 1 mM in rat striatum slices.
Rattus norvegicus [8] = species: Rattus norvegicus; experiment: Percentage response to 0.1 mM of kainic acid (KA) at 1 mM in rat striatum slices.
Rattus norvegicus [9] = species: Rattus norvegicus; experiment: Percentage response to 30 uM of N-methyl-D-aspartic acid (NMDA) at 1 mM in rat striatum slices.
Rattus norvegicus [10] = species: Rattus norvegicus; experiment: Percentage response to 0.1 mM of quisqualic acid at 1 mM in rat striatum slices.
Rattus norvegicus [11] = species: Rattus norvegicus; experiment: Percentage response to 0.1 mM of kainic acid (KA) at 3 mM in rat striatum slices.
Rattus norvegicus [12] = species: Rattus norvegicus; experiment: Percentage response to 0.1 mM of quisqualic acid at 3 mM in rat striatum slices.
Rattus norvegicus [13] = species: Rattus norvegicus; experiment: Percentage response to 0.5 mM of L-Glutamic acid at 3 mM in rat striatum slices.
Rattus norvegicus [14] = species: Rattus norvegicus; experiment: Percentage response to 30 uM of N-methyl-D-aspartic acid (NMDA) at 3 mM in rat striatum slices.
Rattus norvegicus [15] = species: Rattus norvegicus; experiment: Percentage response to 0.5 mM of L-Glutamic acid at 1.5 mM in rat striatum slices.
Rattus norvegicus [16] = species: Rattus norvegicus; experiment: Percentage response to 30 uM of N-methyl-D-aspartic acid (NMDA) at 1.5 mM in rat striatum slices.

CC1(C)OC(=O)C[C@@H]2[C@@H](C(=O)O)NC[C@@H]21
Response (Rattus norvegicus [1]): 66%
Response (Rattus norvegicus [2]): <16%
IC50 (Rattus norvegicus [3]): 300 µM
Response (Rattus norvegicus [4]): 94%
IC50 (Rattus norvegicus [5]): 3000 µM
Response (Rattus norvegicus [6]): 96%

CC1(CI)OC(=O)C[C@@H]2[C@@H](C(=O)O)NC[C@@H]21 (stereo partly drawn)
Response (Rattus norvegicus [1]): <15%
Response (Rattus norvegicus [2]): <42%
Response (Rattus norvegicus [4]): 96%
Response (Rattus norvegicus [6]): 74%

NC(CCCP(=O)(O)O)C(=O)O (stereo not drawn)
Response (Rattus norvegicus [7]): <64%
Response (Rattus norvegicus [8]): 118%
Response (Rattus norvegicus [9]): <0%
Response (Rattus norvegicus [10]): <91%

CC1(CSc2ccccc2)OC(=O)C[C@@H]2[C@H](C(=O)O)NC[C@@H]21 (stereo partly drawn)
Response (Rattus norvegicus [7]): 87%
Response (Rattus norvegicus [8]): <0%
Response (Rattus norvegicus [9]): <36%
IC50 (Rattus norvegicus [5]): 200 µM
Response (Rattus norvegicus [10]): <53%

CC1(CO)OC(=O)C[C@@H]2[C@@H](C(=O)O)NC[C@@H]21 (stereo partly drawn)
Response (Rattus norvegicus [11]): <50%
Response (Rattus norvegicus [12]): 94%
Response (Rattus norvegicus [13]): 106%
Response (Rattus norvegicus [14]): <36%
IC50 (Rattus norvegicus [3]): 2000 µM
IC50 (Rattus norvegicus [5]): 3000 µM

CC1(CSc2ccccc2)OC(=O)C[C@@H]2[C@@H](C(=O)O)NC[C@@H]21 (stereo partly drawn)
Response (Rattus norvegicus [8]): <16%
Response (Rattus norvegicus [15]): 84%
Response (Rattus norvegicus [16]): <10%
Response (Rattus norvegicus [10]): 76%

CC1(CI)OC(=O)C[C@@H]2[C@H](C(=O)O)NC[C@@H]21 (stereo partly drawn)
Response (Rattus norvegicus [1]): <8%
Response (Rattus norvegicus [2]): <49%
Response (Rattus norvegicus [4]): 111%
Response (Rattus norvegicus [6]): 79%
